{
  "source": "ChEMBL document CHEMBL1151668",
  "about": "“Molecular structure of terrecyclodiol: a derivative of the antifungal metabolite terrecyclic acid A from Aspergillus terreus” (1996)",
  "key": {"Phytophthora cinnamomi": {"tested_on": "Phytophthora cinnamomi", "test": "Growth inhibition of Phytophthora cinnamomi", "type": "functional, organism-based"}, "P388": {"tested_on": "P388", "test": "Antitumor activity against mouse P388 cells", "type": "functional"}},
  "note": "Activity calls are given as the source filed them. The rule behind the calls is not given here.",
  "data": [
    {"smiles": "C=C1C(=O)C[C@@H]2[C@@H]3CC[C@@H](C(=O)O)[C@@]12CC3(C)C", "note": "[TERRECYCLIC ACID A]", "values": [
      {"measurement": "Activity", "setting": "Phytophthora cinnamomi", "result": "Active"},
      {"measurement": "Activity", "setting": "P388", "result": "<0.5", "unit": "µg/mL"}
    ]}
  ]
}
